Results taken from patent publication US11873291B2, “Quinoline cGAS antagonist compounds” (ImmuneSensor Therapeutics, Inc., priority 2020, dated 2024).
Like-named read-outs stand apart in the source and are kept apart here.

Columns and labels:
[1] = target: T1, recombinant human cGAS (aa147-522) (Homo sapiens, UniProt Q8N884); assay: In vitro inhibition assay of cGAS activity (ATP consumption, KinaseGlo Max); format: biochemical
T1 construct: recombinant human cGAS (aa147-522); His6-SUMO (cleaved yes); made in house; host or cells: E. coli BL21/pLys
T1 sequence (Q8N884 147-522): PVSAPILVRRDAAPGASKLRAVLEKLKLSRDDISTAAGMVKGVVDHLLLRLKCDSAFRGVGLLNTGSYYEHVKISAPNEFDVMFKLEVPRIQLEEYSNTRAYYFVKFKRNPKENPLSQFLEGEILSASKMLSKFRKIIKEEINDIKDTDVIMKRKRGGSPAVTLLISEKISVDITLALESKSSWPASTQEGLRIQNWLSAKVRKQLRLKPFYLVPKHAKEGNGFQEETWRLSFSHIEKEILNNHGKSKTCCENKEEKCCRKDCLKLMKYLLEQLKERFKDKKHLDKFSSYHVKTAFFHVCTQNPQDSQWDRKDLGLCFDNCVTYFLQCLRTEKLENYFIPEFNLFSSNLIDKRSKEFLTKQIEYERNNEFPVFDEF
Procedure, shortened: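 De-tagged recombinant human cGAS (aa147-522, 1.5 μg/mL) was incubated 20 min at 37 °C with herring testis DNA, 6.6 μM ATP and 0.1 mM GTP in Tris pH 7.5/MgCl2 buffer plus serial compound dilutions. Remaining ATP was read by KinaseGlo Max luminescence, and IC50 was fitted from % ATP consumption versus log concentration.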

[2] = tested on: cGAS activity in Reporter THP1 cell line; assay: Cellular assay to measure cGAS activity: ISRE-Gaussia luciferase reporter THP1 cells transfected with ISD; format: cell-based; conditions: Homo sapiens
Procedure, shortened: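 THP1 ISRE-Gaussia luciferase reporter cells (0.3×10^6/well) pre-incubated 5 min with compound serial dilutions, then lipofectamine-transfected with 2 μg/mL ISD (45 bp DNA) or mock. Secreted luciferase read 16 h later with 1 μM coelenterazine at pH 6.5; IC50 from fold increase over mock. Specificity counter-screen used 2 μg/mL poly(I:C) or Sendai virus 50 Unit/mL.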

[3] = Table 3, read-out: cGAS Inhibition Results IC50
[4] = THP-1, Table 4, Gaussia luciferase
[5] = THP-1, untitled table after Table 4 (continuation)

Row | Compound | IC50 [1, 3] | IC50 [2, 4] | IC50 [2, 5] | IC50 ([1]; Table 2, read-out: cGAS Inhibition Results IC50)
1 | COC(=O)CCNC[C@@H]1CCCN1c1cc(-n2ccnc2)c2ccc(Cl)c(Cl)c2n1 [I-753, methyl (S)-3-(((1-(7,8-dichloro-4-(1H-imidazol-1-yl)quinolin-2-yl)pyrrolidin-2-yl)methyl)amino)propanoate] | > 30000 nM | > 10000 nM | – | –
2 | COC(=O)[C@@H]1[C@@H](O)CCN1c1cc(-n2ccnc2)c2ccc(Cl)c(Cl)c2n1 [I-596] | 2000 to 30000 nM | < 2000 nM | – | –
3 | O=C(O)c1ccn(C[C@@H]2CCCN2c2cc(-n3ccnc3)c3ccc(Cl)c(Cl)c3n2)c1 [I-732] | < 2000 nM | < 2000 nM | – | –
4 | CN(Cc1cccc(CC(=O)O)c1)c1cc(-n2ccnc2)c2ccc(Cl)c(Cl)c2n1 [I-845] | < 2000 nM | – | < 2000 nM | –
5 | CC(C)(C)OC(=O)[C@@H]1[C@@H](O)CCN1c1cc(-n2ccnc2)c2ccc(Cl)c(Cl)c2n1 [I-645, tert-butyl (2S,3S)-1-(7,8-dichloro-4-(1H-imidazol-1-yl)quinolin-2-yl)-3-hydroxypyrrolidine-2-carboxylate] | 2000 to 30000 nM | < 2000 nM | – | –
6 | O=C(O)CNC(=O)C[C@@H]1[C@@H](O)CCN1c1cc(-n2ccnc2)c2ccc(Cl)c(Cl)c2n1 [I-788, (2-((2R,3S)-1-(7,8-dichloro-4-(1H-imidazol-1-yl)quinolin-2-yl)-3-hydroxypyrrolidin-2-yl)acetyl)glycine] | < 2000 nM | – | > 10000 nM | –
7 | OCCCOCC[C@@H]1CCCN1c1cc(-n2ccnc2)c2ccc(Cl)c(Cl)c2n1 [I-678] | < 2000 nM | 2000 to 10000 nM | – | –
8 | N#CNC(=O)COC[C@@H]1CCCN1c1cc(-n2ccnc2)c2ccc(Cl)c(Cl)c2n1 [I-762] | < 2000 nM | – | > 10000 nM | –
9 | CN(CCOc1ccccc1C(=O)O)c1cc(-n2ccnc2)c2ccc(Cl)c(Cl)c2n1 [I-842] | < 2000 nM | – | 2000 to 10000 nM | –
10 | O=C(O)COCC[C@@H]1CC[C@@H](C(=O)O)N1c1cc(-n2ccnc2)c2ccc(Cl)c(Cl)c2n1 [I-715, (2S,5S)-5-(2-(carboxymethoxy)ethyl)-1-(7,8-dichloro-4-(1H-imidazol-1-yl)quinolin-2-yl)pyrrolidine-2-carboxylic acid] | < 2000 nM | > 10000 nM | – | –
11 | O=C(O)CCCCNc1cc(-n2ccnc2)c2ccc(Cl)c(Cl)c2n1 [I-835] | < 2000 nM | – | 2000 to 10000 nM | –
12 | O=C(O)[C@@H]1[C@H]2CC[C@H](C2)N1c1cc(-n2ccnc2)c2ccc(Cl)c(Cl)c2n1 [I-516] | < 2000 nM | > 10000 nM | – | –
13 | O=C(O)CCOCC1CC2CCC1N2c1cc(-n2ccnc2)c2ccc(Cl)c(Cl)c2n1 (stereo not drawn) [I-807] | < 2000 nM | – | < 2000 nM | –
14 | O=C(O)c1cnn(C[C@@H]2CCCN2c2cc(-n3ccnc3)c3ccc(Cl)c(Cl)c3n2)c1 [I-728] | < 2000 nM | 2000 to 10000 nM | – | –
15 | O=C(O)c1ccccc1OC[C@@H]1CCCN1c1cc(-n2ccnc2)c2ccc(Cl)c(Cl)c2n1 [I-733] | < 2000 nM | < 2000 nM | – | –
16 | COC(=O)[C@@H]1C[C@@H](C)CN1c1cc(-n2ccnc2)c2ccc(Cl)c(Cl)c2n1 [I-585] | 2000 to 30000 nM | < 2000 nM | – | –
17 | O=C(O)CCC(=O)NNc1cc(-n2ccnc2)c2ccc(Cl)c(Cl)c2n1 [I-759] | < 2000 nM | – | > 10000 nM | –
18 | COC(=O)CC(C)OC[C@@H]1CCCN1c1cc(-n2ccnc2)c2ccc(Cl)c(Cl)c2n1 (stereo partly drawn) [I-718] | 2000 to 30000 nM | < 2000 nM | – | –
19 | COC(=O)[C@@H]1CCCN1c1cc(-n2ccnc2)c2ccc(Cl)c(Cl)c2n1 [I-593] | 2000 to 30000 nM | 2000 to 10000 nM | – | –
20 | CC1CCN(c2cc(-n3ccnc3)c3ccc(Cl)c(Cl)c3n2)C1C(=O)O (stereo not drawn) [I-473] | < 2000 nM | < 2000 nM | – | –
21 | O=C(O)CCCCCNc1cc(-n2ccnc2)c2ccc(Cl)c(Cl)c2n1 [I-690] | < 2000 nM | < 2000 nM | – | –
22 | O=C(O)c1ccccc1OCCNc1cc(-n2ccnc2)c2ccc(Cl)c(Cl)c2n1 [I-886] | < 2000 nM | – | < 2000 nM | –

Second part, the molecule after the results:

Row | IC50 [1, 3] | IC50 [2, 4] | IC50 [2, 5] | IC50 ([1]; Table 2, read-out: cGAS Inhibition Results IC50) | Compound
23 | < 2000 nM | – | < 2000 nM | – | O=C(O)CCOCCN(c1cc(-n2ccnc2)c2ccc(Cl)c(Cl)c2n1)C1CCCCC1 [I-836]
24 | < 2000 nM | 2000 to 10000 nM | – | – | O=C(O)CCOC[C@@H]1C[C@H](O)CN1c1cc(-n2ccnc2)c2ccc(Cl)c(Cl)c2n1 [I-702]
25 | < 2000 nM | < 2000 nM | – | – | CC(CC(=O)O)OC[C@@H]1CCCN1c1cc(-n2ccnc2)c2ccc(Cl)c(Cl)c2n1 (stereo partly drawn) [I-717]
26 | < 2000 nM | < 2000 nM | – | – | CN(CCCOCCC(=O)O)c1cc(-n2ccnc2)c2ccc(Cl)c(Cl)c2n1 [I-692]
27 | < 2000 nM | > 10000 nM | – | – | O=C(O)COC[C@H](O)[C@@H]1CCCN1c1cc(-n2ccnc2)c2ccc(Cl)c(Cl)c2n1 [I-726, 2-((R)-2-((S)-1-(7,8-dichloro-4-(1H-imidazol-1-yl)quinolin-2-yl)pyrrolidin-2-yl)-2-hydroxyethoxy)acetic acid]
28 | < 2000 nM | – | < 2000 nM | – | O=C(O)CCOC[C@@H]1CCCN1c1cc(-n2ccnc2)c2ccc(Cl)c(Br)c2n1 [I-862]
29 | 2000 to 30000 nM | < 2000 nM | – | – | COC(=O)CCC[C@@H]1CCCN1c1cc(-n2ccnc2)c2ccc(Cl)c(Cl)c2n1 [I-681]
30 | < 2000 nM | – | < 2000 nM | – | O=C(O)CCOCc1ccc(Cl)c(-c2cc(-n3ccnc3)c3ccc(Cl)c(Cl)c3n2)c1 [I-878]
31 | < 2000 nM | 2000 to 10000 nM | – | – | O=C(O)CCOC[C@@H]1CN(c2cc(-c3cn[nH]c3)c3ccc(Cl)c(Cl)c3n2)CCO1 [I-741]
32 | < 2000 nM | – | < 2000 nM | – | O=C(O)CCOC[C@@H]1C[C@@H](C2CCCCC2)CN1c1cc(-n2ccnc2)c2ccc(Cl)c(Cl)c2n1 [I-803]
33 | < 2000 nM | < 2000 nM | – | – | O=C(O)CCOC[C@@H]1C[C@H](F)CN1c1cc(-n2ccnc2)c2ccc(Cl)c(Cl)c2n1 [I-705]
34 | < 2000 nM | – | > 10000 nM | – | O=C(O)C(O)CC[C@@H]1CCCN1c1cc(-n2ccnc2)c2ccc(Cl)c(Cl)c2n1 (stereo partly drawn) [I-817, 4-((S)-1-(7,8-dichloro-4-(1H-imidazol-1-yl)quinolin-2-yl)pyrrolidin-2-yl)-2-hydroxybutanoic acid]
35 | < 2000 nM | 2000 to 10000 nM | – | – | O=C(O)CCOCC[C@@H]1CC[C@@H](C(=O)O)N1c1cc(-n2ccnc2)c2ccc(Cl)c(Cl)c2n1 [I-714, (2S,5S)-5-(2-(2-carboxyethoxy)ethyl)-1-(7,8-dichloro-4-(1H-imidazol-1-yl)quinolin-2-yl)pyrrolidine-2-carboxylic acid]
36 | < 2000 nM | – | > 10000 nM | – | O=C(O)CCOCCN(CCO)c1cc(-n2ccnc2)c2ccc(Cl)c(Cl)c2n1 [I-838]
37 | < 2000 nM | – | < 2000 nM | – | COc1ccc(-c2cc(-n3ccnc3)c3ccc(Cl)c(Cl)c3n2)cc1COCCC(=O)O [I-884]
38 | < 2000 nM | – | < 2000 nM | – | O=C(O)CCOCC1CN(c2cc(-n3ccnc3)c3ccc(Cl)c(Cl)c3n2)CCCO1 (stereo not drawn) [I-867]
39 | – | 2000 to 10000 nM | – | < 2000 nM | O=C(O)[C@@H]1CCCN1c1cc(-c2cn[nH]c2)c2ccc(Cl)c(Cl)c2n1 [I-435]
40 | < 2000 nM | – | < 2000 nM | – | O=C(O)CCOC[C@@H]1CCCN1c1cc(-c2cn[nH]c2)c2cc(Cl)cc(Cl)c2n1 [I-853]
41 | < 2000 nM | – | < 2000 nM | – | C[C@H]1CN(c2cc(-n3ccnc3)c3ccc(Cl)c(Cl)c3n2)C[C@@H]1COCCC(=O)O [I-814]
42 | < 2000 nM | – | 2000 to 10000 nM | – | O=C(O)CCOC[C@@H]1Cc2ccccc2N1c1cc(-n2ccnc2)c2ccc(Cl)c(Cl)c2n1 [I-806]
43 | < 2000 nM | < 2000 nM | – | – | C[C@@]1(COCCC(=O)O)CCCN1c1cc(-n2ccnc2)c2ccc(Cl)c(Cl)c2n1 [I-696]
44 | < 2000 nM | < 2000 nM | – | – | O=C(O)CCOC[C@@H]1CCN1c1cc(-n2ccnc2)c2ccc(Cl)c(Cl)c2n1 [I-688]
45 | < 2000 nM | < 2000 nM | – | – | O=C(O)CCOC[C@@H]1CCCN(c2cc(-n3ccnc3)c3ccc(Cl)c(Cl)c3n2)C1 [I-750]
46 | < 2000 nM | – | < 2000 nM | – | O=C(O)CCOCCN(c1cc(-n2ccnc2)c2ccc(Cl)c(Cl)c2n1)C1CC1 [I-834]
47 | < 2000 nM | – | 2000 to 10000 nM | – | O=C(O)CCOCC1(CNc2cc(-n3ccnc3)c3ccc(Cl)c(Cl)c3n2)CC1 [I-829]
48 | < 2000 nM | – | < 2000 nM | – | Cc1ccc(-c2cc(-n3ccnc3)c3ccc(Cl)c(Cl)c3n2)cc1COCCC(=O)O [I-877]
